Key:
[1] = Solvolysis in THF-CH3OH with CF3SO3H; assay type: physicochemical; conditions: 20 equiv CH3OH, 0.1 equiv CF3SO3H
Method: Solvolysis of N-BOC-CCBI in THF-CH3 OH. The solvolysis of N-BOC-CCBI (25) was carried out in THF with 20-500 equiv of CH3 OH in the presence of 0.1-0.25 equiv of CF3 SO3 H. The following is the procedure for the solvolysis of 25 in THF with 20 equiv of CH3 OH in the presence of CF3 SO3 H (0.1 equiv). A stock solution was prepared by addition of CF3 SO3 H (5.6 μL) and anhydrous CH3 OH (502 μL) to anhydrous THF (99.49 mL). A sample of 25 (100 μg) in a UV cell was dissolved in THF (1950 μL) and the THF stock solution (50 μL) which contained CF3 SO3 H (0.1 equiv) and CH3 OH (20 equiv) was added. The solvolysis solution was sealed and UV spectrum was measured with an automated cycle program at regular intervals (10 min/cycle). The decrease in the long wavelength absorption at 313 nm was monitored and the solvolysis was complete after 80 h.

w794 duplex DNA = test: DNA alkylation selectivity and efficiency within w794 DNA, thermally-induced strand cleavage and PAGE; assay type: biochemical, SV40
Outline: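 5′-32P end-labeled w794 duplex DNA in TE buffer (pH 7.2–7.5) incubated with agent in DMSO across concentrations, 4–37 °C for 24–76 h depending on agent. Unbound agent removed by EtOH precipitation; thermolysis 100 °C, 30 min cleaves alkylation sites, mapped by denaturing 8% PAGE beside Sanger standards and autoradiography.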

L1210 = test: In vitro cytotoxic activity, L1210; conditions: N-BOC derivatives
[2] = natural enantiomers, 37° C., 72 h

**Q.** Which “solvolysis half-life t1/2” value [1] does the source give for `CC(C)(C)OC(=O)N1CC2CC23C1=CC(=O)c1ccc(C#N)cc13` (stereo not drawn) [compound 25, N-(tert-Butyloxycarbonyl)-7-cyano-1,2,9,9a-tetrahydrocyclopropa[c]benz[e]indol-4-one] here?
**A.** The value was 9.2 h.

**Q.** And the solvolysis rate k [1]?
**A.** The solvolysis rate k was 2e-05 s⁻¹.

**Q.** And the “time to complete solvolysis” value [1]?
**A.** The value was 80 h.

**Q.** What about the “DNA alkylation sequence selectivity” value (w794 duplex DNA) of the same compound?
**A.** The value was 5'-AA>5'-TA.

**Q.** What about the “concentration providing detectable DNA alkylation” value (w794 duplex DNA; both enantiomers, 37° C., 24-72 h) of the same compound?
**A.** The value was 10^-2 to 10^-3 M.

**Q.** What about the “concentration at which DNA alkylation is detectable” value (w794 duplex DNA; [2]) of the same compound?
**A.** The value was 10^-3 M.

**Q.** What about the “concentration at which DNA alkylation is prominent” value (w794 duplex DNA; [2]) of the same compound?
**A.** Its value is 10^-2 M.

**Q.** What about the “DNA alkylation less efficient than 34-39” value (w794 duplex DNA; two enantiomers of 25) of the same compound?
**A.** Its value is 10^4 ×.

**Q.** And the “relative cytotoxic potency of natural versus unnatural enantiomers” value (L1210)?
**A.** Its value is 4 ×.
